Test results reported in ChEMBL document CHEMBL3885861, “Open TG-GATES”.

Species on record: Rattus norvegicus
Experiment: Open TG-GATES - Regimen: Single
Format: toxicity, organism-based, Sprague-Dawley
Parameters: regimen Single, gender Male, age 6 weeks
Conditions: in vivo, po, 1000 mg/kg, route gavage, dose level High; for APTT / Bas / Eos / Fbg / Hb / Ht / Lym / MCH / MCHC / MCV / Mono / Neu / PT / Plat / RBC / Ret / WBC: tissue Blood; for KIDNEY_L / KIDNEY_R / KIDNEY_TOTAL: tissue Kidney; for LIVER: tissue Liver; for ALP / ALT / AST / BUN / CRE / Ca / Cl / DBIL / GLC / IP / K / LDH / Na / PL / RALB / TBIL / TC / TG / TP / gamma-GTP: tissue Plasma

COC(=O)C1=C(C)NC(C)=C(C(=O)OC)C1c1ccccc1[N+](=O)[O-] [NIFEDIPINE]
TERMINAL_BW (3 h): 207.9 g | APTT (3 h): 16.6 s | Bas (3 h): 0% | Eos (3 h): 1% | Fbg (3 h): 285.2 mg/dL | Hb (3 h): 13 g/dL | Ht (3 h): 39.9% | Lym (3 h): 69.8% | MCH (3 h): 20.8 pg | MCHC (3 h): 32.6% | MCV (3 h): 63.8 fL | Mono (3 h): 4.6% | Neu (3 h): 24.2% | PT (3 h): 14.9 s | Plat (3 h): 122.2 x10_4/uL | RBC (3 h): 626 x10_4/ul | Ret (3 h): 9.7% | WBC (3 h): 108.1 x10_2/uL | KIDNEY_L (3 h): 0.9 g | KIDNEY_R (3 h): 0.9 g | KIDNEY_TOTAL (3 h): 1.9 g | LIVER (3 h): 8.4 g | ALP (3 h): 1381.2 IU/L | ALT (3 h): 51 IU/L | AST (3 h): 74.8 IU/L | BUN (3 h): 26.2 mg/dL | CRE (3 h): 0.2 mg/dL | Ca (3 h): 11.8 mg/dL | Cl (3 h): 97.2 meq/L | DBIL (3 h): 0.008 mg/dL | GLC (3 h): 260.8 mg/dL | IP (3 h): 9.2 mg/dL | K (3 h): 5 meq/L | LDH (3 h): 99.4 IU/L | Na (3 h): 134.8 meq/L | PL (3 h): 141.4 mg/dL | RALB (3 h): 2.5 g/dL | TBIL (3 h): 0.036 mg/dL | TC (3 h): 81.6 mg/dL | TG (3 h): 46.4 mg/dL | TP (3 h): 5.2 g/dL | gamma-GTP (3 h): 1.6 IU/L | TERMINAL_BW (6 h): 205.1 g | APTT (6 h): 16.5 s | Bas (6 h): 0.2% | Eos (6 h): 0.4% | Fbg (6 h): 282.6 mg/dL | Hb (6 h): 13 g/dL | Ht (6 h): 39.6% | Lym (6 h): 77% | MCH (6 h): 20.6 pg | MCHC (6 h): 32.8% | MCV (6 h): 62.7 fL | Mono (6 h): 3.6% | Neu (6 h): 18% | PT (6 h): 14.9 s | Plat (6 h): 123.3 x10_4/uL | RBC (6 h): 632.4 x10_4/ul | Ret (6 h): 9.2% | WBC (6 h): 92.1 x10_2/uL | KIDNEY_L (6 h): 0.9 g | KIDNEY_R (6 h): 0.9 g | KIDNEY_TOTAL (6 h): 1.9 g | LIVER (6 h): 7.3 g | ALP (6 h): 1242.8 IU/L | ALT (6 h): 50.6 IU/L | AST (6 h): 83 IU/L | BUN (6 h): 40.2 mg/dL | CRE (6 h): 0.2 mg/dL | Ca (6 h): 11 mg/dL | Cl (6 h): 97.2 meq/L | DBIL (6 h): 0.008 mg/dL | GLC (6 h): 229.6 mg/dL | IP (6 h): 11 mg/dL | K (6 h): 5 meq/L | LDH (6 h): 81 IU/L | Na (6 h): 136.4 meq/L | PL (6 h): 148.2 mg/dL | RALB (6 h): 2.6 g/dL | TBIL (6 h): 0.052 mg/dL | TC (6 h): 90.2 mg/dL | TG (6 h): 16.4 mg/dL | TP (6 h): 5.4 g/dL | gamma-GTP (6 h): 1 IU/L | TERMINAL_BW (9 h): 206.6 g | APTT (9 h): 16.7 s | Bas (9 h): 0.4% | Eos (9 h): 0.4% | Fbg (9 h): 287 mg/dL | Hb (9 h): 13.2 g/dL | Ht (9 h): 39.8% | Lym (9 h): 74% | MCH (9 h): 20.8 pg | MCHC (9 h): 33.3% | MCV (9 h): 62.5 fL | Mono (9 h): 4.8% | Neu (9 h): 19.2% | PT (9 h): 14.6 s | Plat (9 h): 123.6 x10_4/uL | RBC (9 h): 637 x10_4/ul | Ret (9 h): 9.7% | WBC (9 h): 96.3 x10_2/uL | KIDNEY_L (9 h): 0.9 g | KIDNEY_R (9 h): 0.9 g | KIDNEY_TOTAL (9 h): 1.7 g | LIVER (9 h): 7.1 g | ALP (9 h): 1341 IU/L | AST (9 h): 75.2 IU/L | BUN (9 h): 41.8 mg/dL | CRE (9 h): 0.2 mg/dL | Ca (9 h): 10.8 mg/dL | Cl (9 h): 96.4 meq/L | DBIL (9 h): 0.008 mg/dL | GLC (9 h): 217.4 mg/dL | IP (9 h): 11.9 mg/dL | K (9 h): 5.3 meq/L | LDH (9 h): 85 IU/L | Na (9 h): 134.6 meq/L | PL (9 h): 152.4 mg/dL | RALB (9 h): 2.6 g/dL | TBIL (9 h): 0.052 mg/dL | TC (9 h): 90.8 mg/dL | TG (9 h): 22.2 mg/dL | TP (9 h): 5.5 g/dL | gamma-GTP (9 h): 1.4 IU/L | TERMINAL_BW (24 h): 197.1 g | APTT (24 h): 17.4 s | Bas (24 h): 0.2% | Eos (24 h): 0.8% | Fbg (24 h): 374 mg/dL | Hb (24 h): 13.1 g/dL | Ht (24 h): 39.6% | Lym (24 h): 72.8% | MCH (24 h): 20.9 pg | MCHC (24 h): 33.1% | MCV (24 h): 63.3 fL | Mono (24 h): 3.6% | Neu (24 h): 22% | PT (24 h): 13.7 s | Plat (24 h): 142.3 x10_4/uL | RBC (24 h): 625.8 x10_4/ul | Ret (24 h): 9.7% | WBC (24 h): 99.5 x10_2/uL | KIDNEY_L (24 h): 0.8 g | KIDNEY_R (24 h): 0.9 g | KIDNEY_TOTAL (24 h): 1.7 g | LIVER (24 h): 6.9 g | ALP (24 h): 1549.8 IU/L | ALT (24 h): 40.6 IU/L | AST (24 h): 67.8 IU/L | BUN (24 h): 10.8 mg/dL | CRE (24 h): 0.2 mg/dL | Ca (24 h): 10.4 mg/dL | Cl (24 h): 106 meq/L | DBIL (24 h): 0.012 mg/dL | GLC (24 h): 167 mg/dL | IP (24 h): 8.6 mg/dL | K (24 h): 3.8 meq/L | LDH (24 h): 78.2 IU/L | Na (24 h): 143 meq/L | PL (24 h): 126.4 mg/dL | RALB (24 h): 2.9 g/dL | TBIL (24 h): 0.054 mg/dL | TC (24 h): 78 mg/dL | TG (24 h): 27 mg/dL | TP (24 h): 6.1 g/dL | gamma-GTP (24 h): 1 IU/L
